target: T1, AMPK protein (recombinant α1β1γ2) (Homo sapiens, UniProt Q13131+Q9Y478); assay: AMPK enzymatic activity (Delfia, AMARA peptide); assay type: biochemical; details: compound 30 μM vs AMP 30 μM; 125 μM ATP; 30 min room temperature; ratio 90% or higher = direct activator
T1 construct: made in house; host or cells: E. coli
Description: The following biological test allows the determination of the efficacy of such compounds of formula (I) onto AMPK protein (recombinant α1β1γ2).
Human recombinant AMPK enzyme was expressed in E. Coli and was reactivated in vitro by LKB1 prior to enzyme activity determination.
AMPK enzyme activities were assayed by using A Delfia technology. AMPK enzyme activities were carried out in microtiter plates (50 mM Hepes buffer, pH 7.4 with 125 μM ATP respectively) in the presence of a synthetic peptide substrate (AMARAASAAALARRR, the “AMARA” peptide) and activators in serial dilutions. Reactions were initiated by the addition of AMPK (50-100 ng). Following mixing, the plates were incubated for 30 min at room temperature. Enzyme activity was assayed by using an anti-phosphoserine antibody to measure the quantity of phosphate incorporated into the AMARAA.
Ratio between the % of control (basal activity) of compound of formula (I) at 30 μM and the % of control (basal activity) of AMP (natural substrate) at 30 μM. Compounds of formula (I) in the table II are considered as direct activator of AMPK if the ratio is 90% or higher.

T1 sequence (Q13131 whole entry): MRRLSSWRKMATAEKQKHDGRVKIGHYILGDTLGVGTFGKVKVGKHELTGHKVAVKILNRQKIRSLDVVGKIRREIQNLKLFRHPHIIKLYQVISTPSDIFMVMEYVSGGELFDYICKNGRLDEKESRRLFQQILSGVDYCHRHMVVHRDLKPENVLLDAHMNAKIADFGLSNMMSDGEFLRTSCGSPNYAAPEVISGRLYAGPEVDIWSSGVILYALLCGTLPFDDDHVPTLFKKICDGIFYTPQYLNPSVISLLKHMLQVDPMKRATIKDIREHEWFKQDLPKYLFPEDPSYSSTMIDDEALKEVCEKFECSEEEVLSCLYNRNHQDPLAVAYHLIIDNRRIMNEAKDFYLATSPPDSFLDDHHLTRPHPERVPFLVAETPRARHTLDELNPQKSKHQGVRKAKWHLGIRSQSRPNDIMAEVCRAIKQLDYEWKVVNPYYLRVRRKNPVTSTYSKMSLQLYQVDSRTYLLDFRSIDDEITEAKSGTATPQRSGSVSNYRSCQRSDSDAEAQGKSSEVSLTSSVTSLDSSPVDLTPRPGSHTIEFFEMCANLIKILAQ
T1 sequence (Q9Y478 whole entry): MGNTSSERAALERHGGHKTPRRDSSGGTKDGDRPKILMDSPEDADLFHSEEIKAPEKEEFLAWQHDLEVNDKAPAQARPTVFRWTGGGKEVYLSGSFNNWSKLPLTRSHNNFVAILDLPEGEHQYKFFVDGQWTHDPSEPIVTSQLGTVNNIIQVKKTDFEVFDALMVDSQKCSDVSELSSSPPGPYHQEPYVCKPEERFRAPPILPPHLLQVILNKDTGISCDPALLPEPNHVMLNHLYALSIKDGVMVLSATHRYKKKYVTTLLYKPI
T1 sequence (Q9UGJ0 whole entry partner): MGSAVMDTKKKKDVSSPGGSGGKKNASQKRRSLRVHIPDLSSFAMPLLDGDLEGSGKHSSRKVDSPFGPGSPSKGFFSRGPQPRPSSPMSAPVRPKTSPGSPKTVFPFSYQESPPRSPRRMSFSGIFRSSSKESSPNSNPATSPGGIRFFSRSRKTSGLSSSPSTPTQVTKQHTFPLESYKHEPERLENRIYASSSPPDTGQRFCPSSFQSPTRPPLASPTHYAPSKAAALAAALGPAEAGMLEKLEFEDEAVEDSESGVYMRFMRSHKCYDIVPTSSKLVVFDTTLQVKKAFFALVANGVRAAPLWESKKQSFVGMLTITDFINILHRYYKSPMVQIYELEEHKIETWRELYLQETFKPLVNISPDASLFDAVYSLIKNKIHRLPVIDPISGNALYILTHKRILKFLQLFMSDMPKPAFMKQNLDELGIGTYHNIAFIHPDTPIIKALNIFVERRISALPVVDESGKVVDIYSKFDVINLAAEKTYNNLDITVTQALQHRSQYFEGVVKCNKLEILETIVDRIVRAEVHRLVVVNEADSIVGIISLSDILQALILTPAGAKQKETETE

Row | SMILES | activity: Ratio between the % of control (basal activity) of compound of formula (I) at 30 μM and the % of control (basal activity) of AMP at 30 μM [%]
1 | N#Cc1cccc(-c2ccc(-c3csc4[nH]c(=O)c(-c5ccccc5)c(O)c34)cc2)c1 [Compound 17, 3-(3′-cyanobiphenyl-4-yl)-4-hydroxy-5-phenyl-6,7-dihydro-thieno[2,3-b]pyridin-6-one] | 116
2 | N#Cc1ccc(-c2ccc(-c3csc4[nH]c(=O)c(-c5ccccc5)c(O)c34)cc2)cc1 [Compound 19, 3-(4′-cyanobiphenyl-4-yl)-4-hydroxy-5-phenyl-6,7-dihydro-thieno[2,3-b]pyridin-6-one] | 217
3 | Cc1ccc(-c2ccc(-c3csc4[nH]c(=O)c(-c5ccccc5)c(O)c34)cc2)cc1 [Compound 14, 4-hydroxy-3-(4′-methylbiphenyl-4-yl)-5-phenyl-6,7-dihydro-thieno[2,3-b]pyridin-6-one] | 176
4 | O=c1[nH]c2scc(-c3ccc(-c4cccc(F)c4)cc3)c2c(O)c1-c1cccnc1 [Compound 33, 3-(3′-fluorobiphenyl-4-yl)-4-hydroxy-5-pyridin-3-yl-6,7-dihydro-thieno[2,3-b]pyridin-6-one] | 147
5 | O=c1[nH]c2scc(-c3ccc(-c4ccoc4)cc3)c2c(O)c1-c1ccncc1 [Compound 27, 3-[4-(3-furyl)phenyl]-4-hydroxy-5-pyridin-4-yl-6,7-dihydro-thieno[2,3-b]pyridin-6-one] | 199
6 | O=c1[nH]c2scc(-c3ccc(-c4cccc(F)c4)cc3)c2c(O)c1-c1ccccc1 [Compound 10, 3-(3′-fluorobiphenyl-4-yl)-4-hydroxy-5-phenyl-6,7-dihydro-thieno[2,3-b]pyridin-6-one] | 153
7 | O=c1[nH]c2sc(Cl)c(-c3ccc(-c4ccccc4O)cc3)c2c(O)c1-c1ccccc1 [Compound 5, 2-chloro-4-hydroxy-3-(2′-hydroxybiphenyl-4-yl)-5-phenyl-6,7-dihydro-thieno[2,3-b]pyridin-6-one] | 138
8 | COC(=O)c1ccc(-c2ccc(-c3csc4[nH]c(=O)c(-c5ccncc5)c(O)c34)cc2)cc1 [Compound 25, Methyl 4′-(4-hydroxy-6-oxo-5-pyridin-4-yl-6,7-dihydro-thieno[2,3-b]pyridin-3-yl)biphenyl-4-carboxylate] | 154
9 | O=c1[nH]c2scc(-c3ccc(-c4ccc(C(F)(F)F)cc4)cc3)c2c(O)c1-c1ccccc1 [Compound 16, 4-hydroxy-5-phenyl-3-(4′-trifluoromethylbiphenyl-4-yl)-6,7-dihydro-thieno[2,3-b]pyridin-6-one] | 101
10 | O=c1[nH]c2scc(-c3ccc(-c4ccc(F)cc4O)cc3)c2c(O)c1-c1ccccc1 [Compound 21, 3-(4′-fluoro-2′-hydroxybiphenyl-4-yl)-4-hydroxy-5-phenyl-6,7-dihydro-thieno[2,3-b]pyridin-6-one] | 187
11 | O=c1[nH]c2scc(-c3ccc(-c4ccccc4O)cc3)c2c(O)c1-c1cccnc1 [Compound 31, 4-hydroxy-3-(2′-hydroxybiphenyl-4-yl)-5-pyridin-3-yl-6,7-dihydro-thieno[2,3-b]pyridin-6-one] | 143
12 | O=c1[nH]c2scc(-c3ccc(-c4ccc(F)cc4)cc3)c2c(O)c1-c1ccccc1 [Compound 13, 3-(4′-fluorobiphenyl-4-yl)-4-hydroxy-5-phenyl-6,7-dihydro-thieno[2,3-b]pyridin-6-one] | 206
13 | Cc1ccc(-c2ccc(-c3csc4[nH]c(=O)c(-c5cccnc5)c(O)c34)cc2)cc1 [Compound 37, 4-hydroxy-3-(4′-methylbiphenyl-4-yl)-5-pyridin-3-yl-6,7-dihydro-thieno[2,3-b]pyridin-6-one] | 168
14 | O=c1[nH]c2scc(-c3ccc(-c4ccc(O)cc4)cc3)c2c(O)c1-c1ccccc1 [Compound 12, 4-hydroxy-3-(4′-hydroxybiphenyl-4-yl)-5-phenyl-6,7-dihydro-thieno[2,3-b]pyridin-6-one] | 139
15 | O=c1[nH]c2scc(-c3ccc(-c4ccc(O)cc4)cc3)c2c(O)c1-c1ccncc1 [Compound 29, 4-hydroxy-3-(4′-hydroxybiphenyl-4-yl)-5-pyridin-4-yl-6,7-dihydro-thieno[2,3-b]pyridin-6-one] | 213
16 | O=c1[nH]c2scc(-c3ccc(-c4ccccc4O)cc3)c2c(O)c1-c1ccncc1 [Compound 28, 4-hydroxy-3-(2′-hydroxybiphenyl-4-yl)-5-pyridin-4-yl-6,7-dihydro-thieno[2,3-b]pyridin-6-one] | 246

The remaining lines, values ahead:

Row | activity: Ratio between the % of control (basal activity) of compound of formula (I) at 30 μM and the % of control (basal activity) of AMP at 30 μM [%] | SMILES
17 | 143 | COc1cc(-c2csc3[nH]c(=O)c(-c4ccccc4)c(O)c23)ccc1-c1cccnc1 [Compound 56, 4-hydroxy-3-[3-methoxy-4-pyridin-3-ylphenyl]-5-phenyl-6,7-dihydro-thieno[2,3-b]pyridin-6-one]
18 | 421 | Cc1ccc(-c2ccc(-c3csc4[nH]c(=O)c(-c5ccccc5)c(O)c34)cc2O)cc1 [Compound 50, 4-hydroxy-3-(2-hydroxy-4′-methylbiphenyl-4-yl)-5-phenyl-6,7-dihydro-thieno[2,3-b]pyridin-6-one]
19 | 243 | O=c1[nH]c2scc(-c3ccc(-c4ccncc4)cc3O)c2c(O)c1-c1ccccc1 [Compound 57, 4-hydroxy-3-[2-hydroxy-4-pyridin-4ylphenyl]-5-phenyl-6,7-dihydro-thieno[2,3-b]pyridin-6-one]
20 | 120 | COc1cc(-c2csc3[nH]c(=O)c(-c4ccccc4)c(O)c23)ccc1-c1ccccc1 [Compound 45, 4-hydroxy-3-(2-methoxybiphenyl-4-yl)-5-phenyl-6,7-dihydro-thieno[2,3-b]pyridin-6-one]
21 | 384 | O=c1[nH]c2scc(-c3ccc(-c4ccc(O)cc4)c(O)c3)c2c(O)c1-c1ccccc1 [Compound 51, 4-hydroxy-3-(2,4′-hydroxybiphenyl-4-yl)-5-phenyl-6,7-dihydro-thieno[2,3-b]pyridin-6-one]
22 | 162 | O=c1[nH]c2scc(-c3ccc(-c4cccnc4)cc3)c2c(O)c1-c1cccnc1 [Compound 40, 4-hydroxy-5-pyridin-3-yl-3-(4-pyridin-3-ylphenyl)-6,7-dihydro-thieno[2,3-b]pyridin-6-one]
23 | 376 | O=C(O)c1ccc(-c2ccc(-c3csc4[nH]c(=O)c(-c5ccccc5)c(O)c34)cc2O)cc1 [Compound 53, 2′-hydroxy-4′-(4-hydroxy-6-oxo-5-phenyl-6,7-dihydro-thieno[2,3-b]pyridin-3-yl)biphenyl-4-carboxylic acid]
24 | 147 | O=c1[nH]c2scc(-c3ccc(-c4cccc(CO)c4)cc3)c2c(O)c1-c1cccnc1 [Compound 39, 4-hydroxy-3-(3′-hydroxymethylbiphenyl-4-yl)-5-pyridin-3-yl-6,7-dihydro-thieno[2,3-b]pyridin-6-one]
25 | 219 | COc1cc(-c2csc3[nH]c(=O)c(-c4ccccc4)c(O)c23)ccc1-c1ccc(C(=O)O)cc1 [Compound 52, 4′-(4-hydroxy-6-oxo-5-phenyl-6,7-dihydro-thieno[2,3-b]pyridin-3-yl)-2′-methoxybiphenyl-4-carboxylic acid]
26 | 118 | COc1cc(-c2csc3[nH]c(=O)c(-c4ccccc4)c(O)c23)ccc1-c1ccc(F)cc1 [Compound 47, 3-(4′-fluoro-2-methoxybiphenyl-4-yl)-4-hydroxy-5-phenyl-6,7-dihydro-thieno[2,3-b]pyridin-6-one]
27 | 139 | O=c1[nH]c2scc(-c3ccc(-c4ccc(O)cc4O)cc3)c2c(O)c1-c1ccccc1 [Compound 43, 4-hydroxy-3-(2′,4′-dihydroxybiphenyl-4-yl)-5-phenyl-6,7-dihydro-thieno[2,3-b]pyridin-6-one]
28 | 160 | COc1cc(-c2csc3[nH]c(=O)c(-c4ccccc4)c(O)c23)ccc1-c1cccc(CO)c1 [Compound 55, 4-hydroxy-3-(3′-hydroxymethyl-2-methoxybiphenyl-4-yl)-5-phenyl-6,7-dihydro-thieno[2,3-b]pyridin-6-one]

— patent US8604202B2, “Thienopyridone derivatives as AMP-activated protein kinase (AMPK) activators” (Merck Patent GmbH, priority 2008, dated 2013)
